Measured values: PubChem BioAssay AID2060487 (Molecular Pharmacology Branch, DTP, NCI, 2025)
pIC50: −log10 of the molar value.

System: 997537-175-T-J1-PDC complex spheroid viability
Assay: Anticancer human tumor 997537-175-T-J1-PDC patient-derived colon adenocarcinoma cell line growth inhibition [GQUAD]
Conditions: for pIC50: curve of first compound; for viability, T/C: stronger effect = lower value
How it was run: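 Tumor cells were grown as complex spheroids with HUVEC endothelial cells and mesenchymal stem cells as stroma. G-quadruplex stabilizers were combined with targeted agents over half-log dilutions from near the clinical Cmax, or from 10 microM.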

[1] = second compound 0.0316 µM, first compound 0.0316 µM
[2] = second compound 0.0316 µM, first compound 0.316 µM
[3] = second compound 0.1 µM, first compound 0.0316 µM
[4] = second compound 0.1 µM, first compound 0.316 µM
[5] = second compound 0.316 µM, first compound 0.0316 µM
[6] = second compound 0.316 µM, first compound 0.316 µM
[7] = second compound 1 µM, first compound 0.0316 µM
[8] = second compound 1 µM, first compound 0.316 µM
[9] = second compound 3.16 µM, first compound 0.0316 µM
[10] = second compound 3.16 µM, first compound 0.316 µM
[11] = second compound 10 µM, first compound 0.0316 µM
[12] = second compound 10 µM, first compound 0.316 µM
[13] = second compound 0.0316 µM, first compound 0.1 µM
[14] = second compound 0.0316 µM, first compound 1 µM
[15] = second compound 0.0316 µM, first compound 3.16 µM
[16] = second compound 0.0316 µM, first compound 10 µM
[17] = second compound 0.1 µM, first compound 0.1 µM
[18] = second compound 0.1 µM, first compound 1 µM
[19] = second compound 0.1 µM, first compound 3.16 µM
[20] = second compound 0.1 µM, first compound 10 µM
[21] = second compound 0.316 µM, first compound 0.1 µM
[22] = second compound 0.316 µM, first compound 1 µM
[23] = second compound 0.316 µM, first compound 3.16 µM
[24] = second compound 0.316 µM, first compound 10 µM
[25] = second compound 1 µM, first compound 0.1 µM
[26] = second compound 1 µM, first compound 1 µM
[27] = second compound 1 µM, first compound 3.16 µM
[28] = second compound 1 µM, first compound 10 µM
[29] = second compound 3.16 µM, first compound 0.1 µM
[30] = second compound 3.16 µM, first compound 1 µM
[31] = second compound 3.16 µM, first compound 3.16 µM
[32] = second compound 3.16 µM, first compound 10 µM
[33] = second compound 10 µM, first compound 0.1 µM
[34] = second compound 10 µM, first compound 1 µM
[35] = second compound 10 µM, first compound 3.16 µM
[36] = second compound 10 µM, first compound 10 µM
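Further: spheroids exposed to the agents for 7 days.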
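Wherever viability, T/C is given: 100% = DMSO vehicle control viability.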

Cc1[nH]c2ccccc2c1CCNCc1ccc(/C=C/C(=O)NO)cc1 + Cc1cnc(CNC(=O)c2c(=O)c3ccc(N4CCCN(C)CC4)nc3n3c2sc2ccccc23)cn1
pIC50 (second compound 0.0316 µM): < 6.50
pIC50 (second compound 0.1 µM): < 6.50
pIC50 (second compound 0.316 µM): 6.63
pIC50 (second compound 1 µM): < 6.50
pIC50 (second compound 3.16 µM): 6.65
pIC50 (second compound 10 µM): 6.55
viability, T/C (second compound 0.0316 µM, first compound 0.000999 µM): 87.7%
viability, T/C (second compound 0.0316 µM, first compound 0.00316 µM): 99%
viability, T/C (second compound 0.0316 µM, first compound 0.00999 µM): 98%
viability, T/C [1]: 80.6%
viability, T/C (second compound 0.0316 µM, first compound 0.0999 µM): 82.2%
viability, T/C [2]: 52.7%
viability, T/C (second compound 0.1 µM, first compound 0.000999 µM): 98.3%
viability, T/C (second compound 0.1 µM, first compound 0.00316 µM): 94.9%
viability, T/C (second compound 0.1 µM, first compound 0.00999 µM): 88.9%
viability, T/C [3]: 90.5%
viability, T/C (second compound 0.1 µM, first compound 0.0999 µM): 80.2%
viability, T/C [4]: 59.5%
viability, T/C (second compound 0.316 µM, first compound 0.000999 µM): 105%
viability, T/C (second compound 0.316 µM, first compound 0.00316 µM): 90.7%
viability, T/C (second compound 0.316 µM, first compound 0.00999 µM): 88.6%
viability, T/C [5]: 84.1%
viability, T/C (second compound 0.316 µM, first compound 0.0999 µM): 99.9%
viability, T/C [6]: 33.9%
viability, T/C (second compound 1 µM, first compound 0.000999 µM): 76.1%
viability, T/C (second compound 1 µM, first compound 0.00316 µM): 87.6%
viability, T/C (second compound 1 µM, first compound 0.00999 µM): 101%
viability, T/C [7]: 102%
viability, T/C (second compound 1 µM, first compound 0.0999 µM): 81.8%
viability, T/C [8]: 53.1%
viability, T/C (second compound 3.16 µM, first compound 0.000999 µM): 96%
viability, T/C (second compound 3.16 µM, first compound 0.00316 µM): 100%
viability, T/C (second compound 3.16 µM, first compound 0.00999 µM): 103%
viability, T/C [9]: 81.4%
viability, T/C (second compound 3.16 µM, first compound 0.0999 µM): 110%
viability, T/C [10]: 30.2%
viability, T/C (second compound 10 µM, first compound 0.000999 µM): 99.2%
viability, T/C (second compound 10 µM, first compound 0.00316 µM): 108%
viability, T/C (second compound 10 µM, first compound 0.00999 µM): 92.8%
viability, T/C [11]: 94.4%
viability, T/C (second compound 10 µM, first compound 0.0999 µM): 108%
viability, T/C [12]: 44.3%

C=CC(=O)N1CCN(c2nc(=O)n(-c3c(C)ccnc3C(C)C)c3nc(-c4c(O)cccc4F)c(F)cc23)C(C)C1 (stereo not drawn) + CN(C)c1ccc(Nc2c3ccc(NC(=O)CCN4CCCC4)cc3nc3cc(NC(=O)CCN4CCCC4)ccc23)cc1
pIC50 (second compound 0.0316 µM): < 5.00
pIC50 (second compound 0.1 µM): < 5.00
pIC50 (second compound 0.316 µM): < 5.00
pIC50 (second compound 1 µM): < 5.00
pIC50 (second compound 3.16 µM): < 5.00
pIC50 (second compound 10 µM): < 5.00
viability, T/C [1]: 103%
viability, T/C [13]: 99.2%
viability, T/C [2]: 86.6%
viability, T/C [14]: 68.8%
viability, T/C [15]: 70.6%
viability, T/C [16]: 85.6%
viability, T/C [3]: 87.7%
viability, T/C [17]: 88.4%
viability, T/C [4]: 93.5%
viability, T/C [18]: 82.1%
viability, T/C [19]: 95.7%
viability, T/C [20]: 89.8%
viability, T/C [5]: 90.7%
viability, T/C [21]: 98.5%
viability, T/C [6]: 88.7%
viability, T/C [22]: 77.5%
viability, T/C [23]: 92.4%
viability, T/C [24]: 74.7%
viability, T/C [7]: 89.5%
viability, T/C [25]: 93.1%
viability, T/C [8]: 97.7%
viability, T/C [26]: 67.9%
viability, T/C [27]: 104%
viability, T/C [28]: 96.2%
viability, T/C [9]: 69.1%
viability, T/C [29]: 81.1%
viability, T/C [10]: 91.2%
viability, T/C [30]: 83.5%
viability, T/C [31]: 97.6%
viability, T/C [32]: 81.2%
viability, T/C [11]: 77%
viability, T/C [33]: 85.7%
viability, T/C [12]: 91.2%
viability, T/C [34]: 98.4%
viability, T/C [35]: 91.2%
viability, T/C [36]: 93.9%

Nc1ccn(C2OC(CO)C(O)C2(F)F)c(=O)n1 (stereo not drawn) + CN(C)c1ccc(Nc2c3ccc(NC(=O)CCN4CCCC4)cc3nc3cc(NC(=O)CCN4CCCC4)ccc23)cc1
pIC50 (second compound 0.0316 µM): < 5.00
pIC50 (second compound 0.1 µM): < 5.00
pIC50 (second compound 0.316 µM): < 5.00
pIC50 (second compound 1 µM): 5.03
pIC50 (second compound 3.16 µM): < 5.00
pIC50 (second compound 10 µM): < 5.00
viability, T/C [1]: 99.1%
viability, T/C [13]: 104%
viability, T/C [2]: 110%
viability, T/C [14]: 64.1%
viability, T/C [15]: 70.2%
viability, T/C [16]: 69.5%
viability, T/C [3]: 96.3%
viability, T/C [17]: 98.5%
viability, T/C [4]: 97.1%
viability, T/C [18]: 72.3%
viability, T/C [19]: 88.3%
viability, T/C [20]: 68.8%
viability, T/C [5]: 81.7%
viability, T/C [21]: 97.8%
viability, T/C [6]: 74.5%
viability, T/C [22]: 74%
viability, T/C [23]: 96.8%
viability, T/C [24]: 77.6%
viability, T/C [7]: 66.7%
viability, T/C [25]: 86.9%
viability, T/C [8]: 79.9%
viability, T/C [26]: 87.5%
viability, T/C [27]: 110%
viability, T/C [28]: 47.5%
viability, T/C [9]: 55.6%
viability, T/C [29]: 80.3%
viability, T/C [10]: 79.7%
viability, T/C [30]: 81%
viability, T/C [31]: 84.5%
viability, T/C [32]: 66.2%
viability, T/C [11]: 84%
viability, T/C [33]: 85.1%
viability, T/C [12]: 84.7%
viability, T/C [34]: 89.5%
viability, T/C [35]: 80.8%
viability, T/C [36]: 63.5%

O=c1[nH]cc(F)c(=O)[nH]1 + Cc1cnc(CNC(=O)c2c(=O)c3ccc(N4CCCN(C)CC4)nc3n3c2sc2ccccc23)cn1
pIC50 (second compound 0.0316 µM): < 5.00
pIC50 (second compound 0.1 µM): < 5.00
pIC50 (second compound 0.316 µM): < 5.00
pIC50 (second compound 1 µM): < 5.00
pIC50 (second compound 3.16 µM): < 5.00
pIC50 (second compound 10 µM): < 5.00
viability, T/C [1]: 96.2%
viability, T/C [13]: 87.6%
viability, T/C [2]: 85.1%
viability, T/C [14]: 92.8%
viability, T/C [15]: 89.6%
viability, T/C [16]: 76.2%
viability, T/C [3]: 75.6%
viability, T/C [17]: 82.8%
viability, T/C [4]: 92.8%
viability, T/C [18]: 82.8%
viability, T/C [19]: 102%
viability, T/C [20]: 83%
viability, T/C [5]: 75.9%
viability, T/C [21]: 74.3%
viability, T/C [6]: 84%
viability, T/C [22]: 105%
viability, T/C [23]: 110%
viability, T/C [24]: 111%
viability, T/C [7]: 88.1%
viability, T/C [25]: 70.1%
viability, T/C [8]: 84.9%
viability, T/C [26]: 109%
viability, T/C [27]: 67.2%
viability, T/C [28]: 82.6%
viability, T/C [9]: 78.4%
viability, T/C [29]: 96.1%
viability, T/C [10]: 87.8%
viability, T/C [30]: 90.1%
viability, T/C [31]: 82.7%
viability, T/C [32]: 92.7%
viability, T/C [11]: 73.7%
viability, T/C [33]: 95.3%
viability, T/C [12]: 98.3%
viability, T/C [34]: 75.2%
viability, T/C [35]: 107%
viability, T/C [36]: 90.6%
